US20240269139A1, “COMPOUNDS FOR TARGETED PROTEIN DEGRADATION OF KINASES” (DANA-FARBER CANCER INSTITUTE, INC., priority 2020, published 2024)
Read-outs that look alike come from different tables or passages of the source.

Legend:
Type in all cases: cell-based
[1] = target: protein kinases (human kinome) (Homo sapiens, UniProt O60307); settings: experiment wp081
[2] = target: protein kinases (human kinome) (Homo sapiens, UniProt P11802)
[3] = target: protein kinases (human kinome) (Homo sapiens, UniProt P53667); settings: LIMK1 (P53667-1)
[4] = target: protein kinases (human kinome) (Homo sapiens, UniProt Q16539)
[5] = system: protein kinases (human kinome); settings: for logFC MAPK8 (P45983-4): direction down; for logFC MAPK8: MAPK8 P45983-4
[6] = target: T1, protein kinases (human kinome) (Homo sapiens, UniProt O95835); settings: LATS1 O95835; experiment wp071
T1 sequence (O95835 1-1130): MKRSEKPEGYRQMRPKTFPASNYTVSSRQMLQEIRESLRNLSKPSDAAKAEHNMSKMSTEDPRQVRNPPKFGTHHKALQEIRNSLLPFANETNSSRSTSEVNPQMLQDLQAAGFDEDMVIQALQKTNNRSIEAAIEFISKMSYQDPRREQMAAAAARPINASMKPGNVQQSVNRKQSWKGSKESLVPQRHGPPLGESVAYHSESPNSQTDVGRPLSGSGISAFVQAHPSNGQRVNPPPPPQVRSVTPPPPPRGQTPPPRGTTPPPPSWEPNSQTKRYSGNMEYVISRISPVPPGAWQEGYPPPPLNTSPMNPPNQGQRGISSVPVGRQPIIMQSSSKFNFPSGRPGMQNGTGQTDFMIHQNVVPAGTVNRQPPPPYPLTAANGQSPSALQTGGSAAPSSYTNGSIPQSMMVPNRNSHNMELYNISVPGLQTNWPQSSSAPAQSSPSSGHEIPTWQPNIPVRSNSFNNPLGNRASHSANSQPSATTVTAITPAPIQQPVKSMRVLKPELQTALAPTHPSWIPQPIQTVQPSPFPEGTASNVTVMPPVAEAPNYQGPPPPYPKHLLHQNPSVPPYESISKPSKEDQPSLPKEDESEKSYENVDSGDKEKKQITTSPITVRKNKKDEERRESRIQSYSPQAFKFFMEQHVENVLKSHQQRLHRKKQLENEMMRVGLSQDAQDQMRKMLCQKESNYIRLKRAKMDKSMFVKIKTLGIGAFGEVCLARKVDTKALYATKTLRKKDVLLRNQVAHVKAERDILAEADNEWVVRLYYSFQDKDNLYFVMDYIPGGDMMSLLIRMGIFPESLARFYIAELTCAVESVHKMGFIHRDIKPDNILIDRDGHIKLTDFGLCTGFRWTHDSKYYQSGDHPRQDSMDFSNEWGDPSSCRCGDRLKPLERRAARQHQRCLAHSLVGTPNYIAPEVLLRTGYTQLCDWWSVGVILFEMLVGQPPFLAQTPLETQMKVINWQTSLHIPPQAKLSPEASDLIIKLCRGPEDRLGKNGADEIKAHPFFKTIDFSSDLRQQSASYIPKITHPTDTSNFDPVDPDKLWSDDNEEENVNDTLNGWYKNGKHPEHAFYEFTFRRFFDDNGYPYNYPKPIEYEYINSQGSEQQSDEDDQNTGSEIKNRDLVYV

[7] = target: protein kinases (human kinome) (Homo sapiens, UniProt P41240); settings: experiment wp071
[8] = target: protein kinases (human kinome) (Homo sapiens, UniProt P42684)
[9] = target: protein kinases (human kinome) (Homo sapiens, UniProt P49674); settings: CSNK1E P49674; experiment wp071
[10] = target: protein kinases (human kinome) (Homo sapiens, UniProt P51451)
[11] = target: T2, protein kinases (human kinome) (Homo sapiens, UniProt Q13163); settings: experiment wp071
T2 sequence (Q13163 1-448): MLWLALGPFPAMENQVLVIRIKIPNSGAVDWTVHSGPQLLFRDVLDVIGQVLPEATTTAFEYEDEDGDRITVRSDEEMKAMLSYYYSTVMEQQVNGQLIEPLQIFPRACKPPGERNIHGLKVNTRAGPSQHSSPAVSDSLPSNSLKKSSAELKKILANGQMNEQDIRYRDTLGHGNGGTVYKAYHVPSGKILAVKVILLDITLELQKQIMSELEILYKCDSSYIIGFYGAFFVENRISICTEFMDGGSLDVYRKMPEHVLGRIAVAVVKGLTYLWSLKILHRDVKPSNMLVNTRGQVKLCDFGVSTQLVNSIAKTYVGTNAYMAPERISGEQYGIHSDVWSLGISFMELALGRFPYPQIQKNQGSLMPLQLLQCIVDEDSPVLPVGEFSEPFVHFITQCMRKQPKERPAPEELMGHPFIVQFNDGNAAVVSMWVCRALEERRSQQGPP

[12] = target: T3, protein kinases (human kinome) (Homo sapiens, UniProt O14965)
T3 sequence (O14965 1-403): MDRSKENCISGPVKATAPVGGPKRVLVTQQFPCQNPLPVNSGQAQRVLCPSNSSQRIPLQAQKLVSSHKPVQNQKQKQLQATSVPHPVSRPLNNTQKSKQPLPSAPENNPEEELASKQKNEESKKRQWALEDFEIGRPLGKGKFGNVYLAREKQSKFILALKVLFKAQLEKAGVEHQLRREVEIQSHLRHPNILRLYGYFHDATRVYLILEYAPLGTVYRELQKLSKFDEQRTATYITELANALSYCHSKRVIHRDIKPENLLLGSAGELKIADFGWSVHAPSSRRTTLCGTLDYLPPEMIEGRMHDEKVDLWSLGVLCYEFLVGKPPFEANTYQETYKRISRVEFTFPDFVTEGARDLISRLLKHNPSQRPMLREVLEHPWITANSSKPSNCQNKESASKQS

[13] = target: protein kinases (human kinome) (Homo sapiens, UniProt P06493); settings: CDK1 P06493
[14] = target: protein kinases (human kinome) (Homo sapiens, UniProt P24941)
[15] = target: protein kinases (human kinome) (Homo sapiens, UniProt P45984); settings: MAPK9 P45984-1, experiment wp104
[16] = target: protein kinases (human kinome) (Homo sapiens, UniProt P50613); settings: for logFC: CDK7 (P50613) protein abundance, degrader vs DMSO, down; for logFC CDK7: CDK7 P50613, experiment wp104
[17] = target: protein kinases (human kinome) (Homo sapiens, UniProt P53779); settings: for logFC MAPK10 (P53779): direction of change down; for logFC: MAPK10 (P53779), experiment wp104
[18] = target: protein kinases (human kinome) (Homo sapiens, UniProt Q00534); settings: for logFC CDK6: CDK6 (Q00534), direction down; for logFC of CDK6 (Q00534): down
[19] = target: protein kinases (human kinome) (Homo sapiens, UniProt Q00535); settings: for logFC of CDK5: Accession Q00535; for logFC CDK5 (Q00535): direction of change down
[20] = target: protein kinases (human kinome) (Homo sapiens, UniProt Q00537); settings: for logFC of CDK17: Accession Q00537; for logFC CDK17 (Q00537): direction of change down
protein kinases (human kinome) (Homo sapiens, UniProt Q00537), sequence (Q00537 whole entry): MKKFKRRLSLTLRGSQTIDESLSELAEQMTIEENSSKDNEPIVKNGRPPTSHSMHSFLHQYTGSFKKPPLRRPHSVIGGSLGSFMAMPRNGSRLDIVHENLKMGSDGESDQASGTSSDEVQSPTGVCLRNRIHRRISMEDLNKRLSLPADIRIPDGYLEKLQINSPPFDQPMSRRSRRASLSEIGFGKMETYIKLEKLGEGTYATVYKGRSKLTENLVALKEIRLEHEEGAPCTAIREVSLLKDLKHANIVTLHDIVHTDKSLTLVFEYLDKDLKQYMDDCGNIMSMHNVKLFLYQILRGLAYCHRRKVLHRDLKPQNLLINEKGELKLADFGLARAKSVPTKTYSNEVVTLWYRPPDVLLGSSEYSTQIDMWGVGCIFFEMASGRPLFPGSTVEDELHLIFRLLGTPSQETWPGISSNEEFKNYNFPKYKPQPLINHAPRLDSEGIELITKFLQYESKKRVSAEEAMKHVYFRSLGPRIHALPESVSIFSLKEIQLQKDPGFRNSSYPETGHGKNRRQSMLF

protein kinases (human kinome) (Homo sapiens, UniProt P45984), sequence (P45984 whole entry): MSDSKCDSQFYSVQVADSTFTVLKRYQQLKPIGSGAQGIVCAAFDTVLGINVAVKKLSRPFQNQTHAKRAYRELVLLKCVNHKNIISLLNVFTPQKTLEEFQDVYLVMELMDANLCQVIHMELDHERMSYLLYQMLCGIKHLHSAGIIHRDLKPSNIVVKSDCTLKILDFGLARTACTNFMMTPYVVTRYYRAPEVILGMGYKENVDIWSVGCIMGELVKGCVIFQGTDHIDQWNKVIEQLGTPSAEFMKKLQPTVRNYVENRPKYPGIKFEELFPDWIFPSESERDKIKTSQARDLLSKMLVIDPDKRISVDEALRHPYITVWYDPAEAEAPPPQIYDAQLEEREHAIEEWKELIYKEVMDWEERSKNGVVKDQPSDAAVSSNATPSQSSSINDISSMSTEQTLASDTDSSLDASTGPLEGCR
protein kinases (human kinome) (Homo sapiens, UniProt P53779), sequence (P53779 whole entry): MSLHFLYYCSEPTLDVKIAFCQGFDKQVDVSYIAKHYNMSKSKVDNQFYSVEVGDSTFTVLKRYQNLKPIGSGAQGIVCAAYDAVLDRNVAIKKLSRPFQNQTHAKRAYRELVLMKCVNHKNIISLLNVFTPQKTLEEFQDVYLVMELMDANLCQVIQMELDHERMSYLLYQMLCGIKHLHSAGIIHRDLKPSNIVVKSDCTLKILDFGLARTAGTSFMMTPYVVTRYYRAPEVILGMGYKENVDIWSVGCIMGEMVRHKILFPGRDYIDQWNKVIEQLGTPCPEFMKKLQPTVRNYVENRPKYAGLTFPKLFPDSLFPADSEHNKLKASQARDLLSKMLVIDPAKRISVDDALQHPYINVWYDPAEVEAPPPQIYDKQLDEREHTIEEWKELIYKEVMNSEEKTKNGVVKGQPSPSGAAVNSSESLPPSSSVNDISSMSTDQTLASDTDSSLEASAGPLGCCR
protein kinases (human kinome) (Homo sapiens, UniProt P11802), sequence (P11802 whole entry): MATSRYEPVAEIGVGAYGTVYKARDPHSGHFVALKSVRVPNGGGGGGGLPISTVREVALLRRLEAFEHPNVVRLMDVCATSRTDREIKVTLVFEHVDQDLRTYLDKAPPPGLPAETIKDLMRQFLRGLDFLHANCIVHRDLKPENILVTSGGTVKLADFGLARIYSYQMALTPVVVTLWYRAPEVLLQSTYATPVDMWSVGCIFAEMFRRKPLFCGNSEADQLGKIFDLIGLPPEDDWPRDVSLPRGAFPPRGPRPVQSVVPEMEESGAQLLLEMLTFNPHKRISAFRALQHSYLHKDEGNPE
protein kinases (human kinome) (Homo sapiens, UniProt P06493), sequence (P06493 whole entry): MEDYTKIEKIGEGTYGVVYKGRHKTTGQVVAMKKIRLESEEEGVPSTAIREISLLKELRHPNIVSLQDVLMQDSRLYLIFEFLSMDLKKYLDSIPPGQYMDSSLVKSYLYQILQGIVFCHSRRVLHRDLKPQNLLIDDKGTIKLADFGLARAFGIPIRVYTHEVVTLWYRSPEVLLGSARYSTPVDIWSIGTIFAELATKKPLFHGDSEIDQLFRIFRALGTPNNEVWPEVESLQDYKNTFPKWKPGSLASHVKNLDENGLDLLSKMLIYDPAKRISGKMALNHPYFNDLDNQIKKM
protein kinases (human kinome) (Homo sapiens, UniProt P53667), sequence (P53667 whole entry): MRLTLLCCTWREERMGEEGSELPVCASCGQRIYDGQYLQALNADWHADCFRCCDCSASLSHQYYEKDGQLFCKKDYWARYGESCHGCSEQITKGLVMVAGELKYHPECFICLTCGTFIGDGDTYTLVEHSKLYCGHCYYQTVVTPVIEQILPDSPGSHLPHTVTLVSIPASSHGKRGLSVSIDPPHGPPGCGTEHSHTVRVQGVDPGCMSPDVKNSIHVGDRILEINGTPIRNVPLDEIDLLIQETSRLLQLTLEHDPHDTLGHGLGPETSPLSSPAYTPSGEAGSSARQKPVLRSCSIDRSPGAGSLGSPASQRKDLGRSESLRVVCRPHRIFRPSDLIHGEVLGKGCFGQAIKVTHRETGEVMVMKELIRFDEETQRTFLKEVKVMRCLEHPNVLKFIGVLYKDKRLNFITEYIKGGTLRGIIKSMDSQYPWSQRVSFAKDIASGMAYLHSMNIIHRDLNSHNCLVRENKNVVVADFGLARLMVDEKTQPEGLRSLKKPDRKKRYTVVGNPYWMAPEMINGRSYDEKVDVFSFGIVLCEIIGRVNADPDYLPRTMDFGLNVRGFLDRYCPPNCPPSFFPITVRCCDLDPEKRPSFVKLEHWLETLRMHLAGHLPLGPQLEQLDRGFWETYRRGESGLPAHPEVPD
protein kinases (human kinome) (Homo sapiens, UniProt Q00535), sequence (Q00535 whole entry): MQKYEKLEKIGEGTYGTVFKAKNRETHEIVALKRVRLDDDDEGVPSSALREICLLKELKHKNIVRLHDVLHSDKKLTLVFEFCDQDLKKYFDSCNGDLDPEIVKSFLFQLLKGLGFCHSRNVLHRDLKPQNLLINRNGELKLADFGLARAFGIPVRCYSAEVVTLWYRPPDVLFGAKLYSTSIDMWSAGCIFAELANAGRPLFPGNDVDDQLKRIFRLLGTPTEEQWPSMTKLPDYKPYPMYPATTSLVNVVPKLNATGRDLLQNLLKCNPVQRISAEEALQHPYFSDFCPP
protein kinases (human kinome) (Homo sapiens, UniProt P50613), sequence (P50613 whole entry): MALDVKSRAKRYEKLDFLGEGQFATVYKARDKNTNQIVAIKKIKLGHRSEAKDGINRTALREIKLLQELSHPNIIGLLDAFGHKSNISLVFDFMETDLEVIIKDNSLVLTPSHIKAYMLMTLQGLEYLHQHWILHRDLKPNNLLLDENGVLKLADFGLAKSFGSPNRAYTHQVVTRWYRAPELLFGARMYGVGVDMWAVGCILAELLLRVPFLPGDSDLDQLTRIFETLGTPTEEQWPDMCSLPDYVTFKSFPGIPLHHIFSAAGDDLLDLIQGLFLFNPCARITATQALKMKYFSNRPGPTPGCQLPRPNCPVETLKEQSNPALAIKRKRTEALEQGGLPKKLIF
protein kinases (human kinome) (Homo sapiens, UniProt Q00534), sequence (Q00534 whole entry): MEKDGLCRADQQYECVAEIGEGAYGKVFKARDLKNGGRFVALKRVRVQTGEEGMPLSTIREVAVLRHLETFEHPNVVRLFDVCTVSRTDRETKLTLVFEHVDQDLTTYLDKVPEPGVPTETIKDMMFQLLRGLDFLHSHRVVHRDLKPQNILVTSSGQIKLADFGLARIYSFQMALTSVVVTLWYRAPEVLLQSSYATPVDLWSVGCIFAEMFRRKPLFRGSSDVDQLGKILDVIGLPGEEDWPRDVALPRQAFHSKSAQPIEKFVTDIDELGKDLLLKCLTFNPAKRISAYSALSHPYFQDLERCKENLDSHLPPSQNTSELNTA
protein kinases (human kinome) (Homo sapiens, UniProt P51451), sequence (P51451 whole entry): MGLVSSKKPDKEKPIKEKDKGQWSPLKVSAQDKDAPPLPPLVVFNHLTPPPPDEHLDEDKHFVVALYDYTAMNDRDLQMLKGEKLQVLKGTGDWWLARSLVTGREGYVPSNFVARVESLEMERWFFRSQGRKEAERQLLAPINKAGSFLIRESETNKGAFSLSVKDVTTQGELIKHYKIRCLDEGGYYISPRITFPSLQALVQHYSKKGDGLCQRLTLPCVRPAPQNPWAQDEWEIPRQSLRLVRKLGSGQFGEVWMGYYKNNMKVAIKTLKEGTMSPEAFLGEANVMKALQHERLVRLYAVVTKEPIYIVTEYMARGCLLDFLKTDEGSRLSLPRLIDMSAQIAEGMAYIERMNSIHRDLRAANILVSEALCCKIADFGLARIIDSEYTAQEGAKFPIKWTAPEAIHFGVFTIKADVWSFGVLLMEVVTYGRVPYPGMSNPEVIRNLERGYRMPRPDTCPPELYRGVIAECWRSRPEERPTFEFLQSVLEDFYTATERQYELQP
protein kinases (human kinome) (Homo sapiens, UniProt Q16539), sequence (Q16539 whole entry): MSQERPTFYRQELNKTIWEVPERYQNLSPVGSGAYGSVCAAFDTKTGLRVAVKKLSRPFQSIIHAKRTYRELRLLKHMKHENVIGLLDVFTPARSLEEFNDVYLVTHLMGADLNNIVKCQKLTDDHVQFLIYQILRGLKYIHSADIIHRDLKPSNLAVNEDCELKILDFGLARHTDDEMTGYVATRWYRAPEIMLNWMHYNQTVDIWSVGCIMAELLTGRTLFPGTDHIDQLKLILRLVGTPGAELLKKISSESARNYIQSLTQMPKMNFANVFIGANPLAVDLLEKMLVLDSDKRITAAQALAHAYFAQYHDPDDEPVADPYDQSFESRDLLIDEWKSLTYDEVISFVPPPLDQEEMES
protein kinases (human kinome) (Homo sapiens, UniProt P41240), sequence (P41240 whole entry): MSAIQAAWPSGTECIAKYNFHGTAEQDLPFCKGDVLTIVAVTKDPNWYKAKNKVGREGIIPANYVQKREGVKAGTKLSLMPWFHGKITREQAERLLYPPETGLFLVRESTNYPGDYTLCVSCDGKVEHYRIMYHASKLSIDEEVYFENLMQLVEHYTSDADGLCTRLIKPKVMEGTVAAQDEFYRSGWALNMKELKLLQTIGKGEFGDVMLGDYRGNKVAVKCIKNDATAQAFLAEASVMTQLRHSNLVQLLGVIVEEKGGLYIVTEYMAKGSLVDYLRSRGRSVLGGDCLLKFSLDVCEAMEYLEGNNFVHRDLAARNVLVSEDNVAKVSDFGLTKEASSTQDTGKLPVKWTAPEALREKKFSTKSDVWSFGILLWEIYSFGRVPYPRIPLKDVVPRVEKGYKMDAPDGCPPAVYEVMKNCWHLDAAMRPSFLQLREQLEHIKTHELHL

SMILES: CC(C)(C)c1cc(NC(=O)Nc2ccc(Oc3ccnc(C(=O)NCCOCCOCCNC(=O)CNc4cccc5c4C(=O)N(C4CCC(=O)NC4=O)C5=O)c3)cc2F)n(-c2ccc3ncccc3c2)n1 (centres unmarked) [TL13.178]
- logFC MAST3 (O60307) ([1]; direction of change down): −0.4852
- logFC MAST3 ([1]; protein MAST3 (O60307), down): −0.4852
- logFC CDK4 (P11802) ([2]; experiment wp081): −0.5762
- logFC LIMK1 ([3]; direction down, experiment wp081): −0.3359
- logFC LIMK1 ([3]; experiment wp081, down): −0.3359
- logFC ([4]; MAPK14 (Q16539) protein abundance, degrader vs DMSO, down): −0.5659
- logFC MAPK14 ([4]; MAPK14, accession Q16539, experiment wp081, direction of change down): −0.5659
- logFC MAP3K20 (Q9NYL2-2) ([5]; Experiment wp081): −1.407
- logFC MAPK14 ([5]; MAPK14, accession Q16539-2, experiment wp081, direction of change down): −0.3343
- logFC MAPK14 ([5]; MAPK14 Q16539-2, experiment wp081): −0.3343
- logFC MAP3K20 (Q9NYL2-2) ([5]; experiment wp081): −1.407

SMILES: Nc1ncnc2c1c(-c1ccc(Oc3ccccc3)cc1)nn2[C@H]1CC[C@H](N2CCN(CCCCCCNC(=O)COc3cccc4c3C(=O)N(C3CCC(=O)NC3=O)C4=O)CC2)CC1 (some centres unmarked) [SB1.G.200]
- logFC [6]: −1.403
- logFC LATS1 [6]: −1.403
- logFC of CSK ([7]; Accession P41240): −3.011
- logFC CSK ([7]; CSK (P41240), down): −3.011
- logFC ([8]; ABL2 (P42684) protein abundance, degrader vs DMSO, down): −2.103
- logFC ABL2 (P42684) ([8]; experiment wp071): −2.103
- logFC [9]: −0.76
- logFC CSNK1E [9]: −0.76
- logFC BLK ([10]; BLK (P51451), direction down, experiment wp071): −1.525
- logFC of BLK (P51451) ([10]; Experiment wp071, down): −1.525
- logFC LIMK1 ([3]; direction down, experiment wp071): −0.775
- logFC LIMK1 ([3]; experiment wp071, down): −0.775
- logFC ([11]; MAP2K5 (Q13163-1)): −1.433
- logFC of MAP2K5 (Q13163-1) [11]: −1.433
- logFC ABL1 ([5]; ABL1 (P00519-2), experiment wp071): −1.646
- logFC FYN ([5]; Accession P06241-2, experiment wp071): −1.777
- logFC of SRC ([5]; Accession P12931-2, experiment wp071): −2.174
- logFC FYN ([5]; FYN P06241-2, experiment wp071): −1.777
- logFC LCK ([5]; LCK, accession P06239-3, experiment wp071, direction of change down): −1.275
- logFC ([5]; SRC (P12931-2) protein abundance, degrader vs DMSO, down): −2.174
- logFC ABL1 (P00519-2) ([5]; experiment wp071): −1.646
- logFC LCK (P06239-3) ([5]; experiment wp071, direction of change down): −1.275

SMILES: NC(=O)c1c(F)cccc1Nc1nc(NC2CCN(S(=O)(=O)CCNC(=O)CCCCCCCCOc3cccc4c3C(=O)N(C3CCC(=O)NC3=O)C4=O)CC2)ncc1Br (centres unmarked) [TMX.01.160.1]
- logFC AURKA (O14965) ([12]; experiment wp104, _0.25): −1.326
- logFC AURKA (O14965) ([12]; experiment wp104, _1): −1.466
- logFC ([13]; experiment wp104, 0.25): −0.7936
- logFC CDK1 ([13]; experiment wp104, 0.25): −0.7936
- logFC ([13]; experiment wp104, 1): −0.9413
- logFC CDK1 ([13]; experiment wp104, 1): −0.9413
- logFC CDK4 (P11802) ([2]; experiment wp104, _0.25): −0.5542
- logFC CDK4 (P11802) ([2]; experiment wp104, _1): −0.7676
- logFC CDK2 (P24941-1) ([14]; experiment wp104, _0.25): −1.024
- logFC CDK2 (P24941-1) ([14]; experiment wp104, _0.25, direction of change down): −1.024
- logFC CDK2 (P24941-1) ([14]; experiment wp104, _1): −0.9457
- logFC CDK2 (P24941-1) ([14]; experiment wp104, _1, direction of change down): −0.9457
- logFC ([15]; _0.25): −1.635
- logFC MAPK9 ([15]; _0.25): −1.635
- logFC ([15]; _1): −1.496
- logFC MAPK9 ([15]; _1): −1.496
- logFC ([16]; experiment suffix _0.25): −0.4941
- logFC ([16]; experiment suffix _1): −0.5204
- logFC CDK7 ([16]; _0.25): −0.4941
- logFC CDK7 ([16]; _1): −0.5204
- logFC MAPK10 (P53779) ([17]; Experiment wp104_TMX.01.160.1_0.25): −0.5743
- logFC MAPK10 (P53779) ([17]; Experiment wp104_TMX.01.160.1_1): −0.5743
- logFC ([17]; suffix _0.25): −0.5743
- logFC ([17]; suffix _1): −0.5743
- logFC CDK6 ([18]; experiment wp104, _0.25): −0.866
- logFC CDK6 ([18]; experiment wp104, _1): −0.8425
- logFC of CDK6 (Q00534) ([18]; Experiment wp104, _0.25): −0.866
- logFC of CDK6 (Q00534) ([18]; Experiment wp104, _1): −0.8425
- logFC of CDK5 ([19]; experiment wp104, suffix _0.25): −1.866
- logFC of CDK5 ([19]; experiment wp104, suffix _1): −1.827
- logFC CDK5 (Q00535) ([19]; experiment wp104, _0.25): −1.866
- logFC CDK5 (Q00535) ([19]; experiment wp104, _1): −1.827
- logFC of CDK17 ([20]; experiment wp104, suffix _0.25): −0.7788
- logFC of CDK17 ([20]; experiment wp104, suffix _1): −0.6817
- logFC CDK17 (Q00537) ([20]; experiment wp104, _0.25): −0.7788
- logFC CDK17 (Q00537) ([20]; experiment wp104, _1): −0.6817
- logFC MAPK8 (P45983-4) ([5]; Experiment wp104, _0.25): −0.3338
- logFC MAPK8 (P45983-4) ([5]; Experiment wp104, _1): −0.476
- logFC MAPK8 ([5]; experiment wp104, _0.25): −0.3338
- logFC MAPK8 ([5]; experiment wp104, _1): −0.476
- logFC CDK16 (Q00536-2) ([5]; experiment wp104, 0.25): −0.8646
- logFC CDK16 (Q00536-2) ([5]; experiment wp104, 1): −0.6009
- logFC CDK16 (Q00536-2) ([5]; experiment wp104, suffix _0.25): −0.8646
- logFC CDK16 (Q00536-2) ([5]; experiment wp104, suffix _1): −0.6009
